# What was measured:
# Ito (Kv4.3) = target: T1, Ito (Kv4.3) (Homo sapiens, UniProt Q9UK17); assay: Whole-cell patch clamp in human atrial myocytes: Ito; format: cell-based
# T1 construct: endogenous in cells; host or cells: freshly isolated human atrial myocytes
# T1 sequence (Q9UK17 1-655): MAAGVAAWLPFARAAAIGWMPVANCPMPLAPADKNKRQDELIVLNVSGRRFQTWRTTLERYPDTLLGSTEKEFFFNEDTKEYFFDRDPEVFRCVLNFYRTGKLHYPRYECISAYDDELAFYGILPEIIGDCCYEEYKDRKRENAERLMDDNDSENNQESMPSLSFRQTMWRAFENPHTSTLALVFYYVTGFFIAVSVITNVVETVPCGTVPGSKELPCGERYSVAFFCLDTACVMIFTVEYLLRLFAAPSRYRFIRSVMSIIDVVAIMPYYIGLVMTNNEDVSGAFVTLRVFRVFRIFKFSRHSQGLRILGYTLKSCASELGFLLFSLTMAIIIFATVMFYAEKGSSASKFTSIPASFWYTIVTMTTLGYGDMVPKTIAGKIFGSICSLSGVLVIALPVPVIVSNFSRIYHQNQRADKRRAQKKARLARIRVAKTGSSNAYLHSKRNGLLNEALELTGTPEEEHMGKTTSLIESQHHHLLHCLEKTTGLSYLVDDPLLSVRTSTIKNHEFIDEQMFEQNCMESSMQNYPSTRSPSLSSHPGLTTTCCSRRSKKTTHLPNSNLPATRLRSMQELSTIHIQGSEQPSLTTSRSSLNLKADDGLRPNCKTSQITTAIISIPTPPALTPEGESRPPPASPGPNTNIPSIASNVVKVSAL
# T1 sequence (Q9NS61 1-270 partner): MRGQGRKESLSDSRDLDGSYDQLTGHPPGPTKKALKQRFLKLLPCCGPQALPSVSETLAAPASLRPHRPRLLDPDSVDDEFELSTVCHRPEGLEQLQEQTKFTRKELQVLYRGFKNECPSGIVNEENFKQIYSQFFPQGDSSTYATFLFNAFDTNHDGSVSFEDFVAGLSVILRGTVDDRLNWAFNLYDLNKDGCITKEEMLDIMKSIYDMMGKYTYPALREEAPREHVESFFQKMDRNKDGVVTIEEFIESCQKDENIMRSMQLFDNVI
# Method: (§1) The blocking profile of the compounds of the invention is determined on the following channels of the human atrial myocytes: INa, Ito, Isus and IK1 channel currents.
# (§2) Human atrial myocytes: Myocytes were prepared from specimens with grossly normal anatomical aspect, excised from hearts of patients with normal P-wave electrocardiogram, undergoing bypass surgery. Human atrial sample were obtained following approval by the ethical committee. […]
# (§3) Experiments were performed at room temperature (20-25° C.) for INa and at 32-34° C. for Ito, Isus, IK1. Currents were measured using the whole-cell variant of the patch clamp method. […]
# (§4) After rupture of the cell membrane to enter the whole-cell mode, current amplitude and kinetics were allowed to stabilize for 3-7 min before initiating the experimental procedure. K^+ currents recorded from human atrial myocytes were elicited by a 500 ms pulse to +60 mV from a holding potential of −50 mV for Ito and Isus. Ito was measured as a peak current amplitude whereas Isus as a current present at the end of the 500 ms voltage pulse. In addition, the area under the curve, before and after compound, were measured over the course of the pulse period. […]
# [1] = test system: Isus (Kv1.5 + additional channels); assay: Whole-cell patch clamp in human atrial myocytes: Isus; format: cell-based; settings: n = 3 cells
# Method: as §1, §2, §3, §4
compound,measurement,setting,value
"COc1ccccc1Nc1nc(C)c(C(=O)N[C@H]2CCC[C@@H]2OCc2ccccc2)s1 [Compound 68, 2-(2-methoxy-phenylamino)-4-methyl-thiazole-5-carboxylic acid (1S,2S)-2-(benzyloxycyclopent-1-yl) amide]",Block at 10 μM in %: Ito (Kv4.3),"Ito (Kv4.3); 10 μM, n = 3 cells",82.0 ± 3.6%
same,IC50,"Ito (Kv4.3); dose-response analysis, read-out: IC50 on the ITO current",800 nM
same,Block at 10 μM in %: Isus (Kv1.5 + additional channels),[1],55.2 ± 6.4%
